± gives the expanded uncertainty stated by the source.
Tests used:
[1] = 303.15 K, Liquid; for mass density: 101 kPa; for speed of sound: 101.33 kPa, Frequency=2 MHz
[2] = xn = mol fraction of the nth substance listed; settings: 303.15 K, 101 kPa, Liquid; for speed of sound: Frequency=2 MHz

CC(CC(C)(C)C)CP(=O)(O)CC(C)CC(C)(C)C (stereo unspecified) [bis-(2,4,4-trimethylpentyl) phosphinic acid]
[1]
Settings	mass density [kg/m3]	speed of sound [m/s]
–	924.7 ± 12	1290.4 ± 17

Cc1ccccc1 [toluene]
[1]
Settings	mass density [kg/m3]	speed of sound [m/s]
–	866.7 ± 8.9	1271.9 ± 11

CC(CC(C)(C)C)CP(=O)(O)CC(C)CC(C)(C)C (stereo unspecified) [bis-(2,4,4-trimethylpentyl) phosphinic acid] + Cc1ccccc1
[2]
Settings	mass density [kg/m3]	speed of sound [m/s]
x1 = 0.0781	875.6 ± 9.1	1266.5 ± 11
x1 = 0.1268	882.5 ± 9.2	1266.9 ± 11
x1 = 0.1843	888 ± 9.3	1267.5 ± 11
x1 = 0.2532	893.8 ± 9.4	1268.2 ± 11
x1 = 0.3371	899.7 ± 9.6	1269.2 ± 12
x1 = 0.4416	900.9 ± 9.8	1274.6 ± 12
x1 = 0.5755	906.4 ± 10	1278 ± 13
x1 = 0.7531	913.1 ± 11	1284 ± 15
x1 = 1	924.7 ± 12	1290.4 ± 17

c1ccccc1 [benzene]
[1]
Settings	mass density [kg/m3]	speed of sound [m/s]
–	872 ± 9	1257 ± 11

Cc1ccccc1 [toluene] + CC(CC(C)(C)C)CP(=O)(O)CC(C)CC(C)(C)C
[2], x2 = 0
Settings	mass density [kg/m3]	speed of sound [m/s]
–	866.7 ± 8.9	1271.9 ± 11

c1ccccc1 [benzene] + CC(CC(C)(C)C)CP(=O)(O)CC(C)CC(C)(C)C
[2], x2 = 0
Settings	mass density [kg/m3]	speed of sound [m/s]
–	872 ± 9	1257 ± 11

CC(CC(C)(C)C)CP(=O)(O)CC(C)CC(C)(C)C (stereo unspecified) [bis-(2,4,4-trimethylpentyl) phosphinic acid] + c1ccccc1
[2]
Settings	mass density [kg/m3]	speed of sound [m/s]
x1 = 0.0666	886.8 ± 9.2	1252.2 ± 11
x1 = 0.109	891.9 ± 9.3	1255.2 ± 11
x1 = 0.1599	895.6 ± 9.4	1258.1 ± 11
x1 = 0.2222	901.1 ± 9.5	1259.1 ± 11
x1 = 0.2999	904.9 ± 9.6	1261.3 ± 12
x1 = 0.3999	908.4 ± 9.8	1263.2 ± 12
x1 = 0.5332	912.3 ± 10	1266.8 ± 13
x1 = 0.7199	915.3 ± 11	1274.3 ± 14
x1 = 1	924.7 ± 12	1290.4 ± 17

Reference: the NIST ThermoML archive (doi:10.1016/j.jct.2004.12.001)
